Here are results for five molecules from patent US9273021B2, “Dibenzofuran derivatives as inhibitors of fructose 1,6-bisphosphatase and methods of use thereof” (TRUSTEES OF BOSTON COLLEGE, priority 2009, dated 2016).

Values joined by “and” are separate entries in the source; they are usually repeats but may differ in a detail not shown here. Equal values may be shown once. Read-outs that look alike come from different tables or passages of the source.

Broadly, the IC50 is the concentration that inhibits the measured activity by half.

One series concerns the target pig kidney FBPase (Sus scrofa, UniProt P00636). Briefly: FBPase activity, enzyme-coupled spectrophotometric assay. It counts as biochemical. The following applies: for inhibition of pig kidney FBPase relative to AMP: compared with AMP, the natural allosteric inhibitor; for IC50: pig kidney FBPase. How it is done: The test were performed using an enzyme-coupled assay^17 with AMP as a control.
(§1) FBPase activity was measured spectrophotometrically by employing the coupling enzymes phosphoglucose isomerase and glucose-6-phosphate dehydrogenase.^17 The reduction of NADP+ to NADPH was monitored directly at 340 nm. Specifically, buffer (0.2 M Tris, 4 mM MgCl2, 4 mM (NH4)2SO4, 0.1 EDTA, pH 7.5), 0.2 mM of NADP+, 1.4 units of phosphoglucose isomerase and 0.5 units of glucose-6-phosphate dehydrogenase, 0-300M of inhibitor and 9 ng of FBPase, were mixed in a cuvette and equilibrated at 30° C. 70M of FBP was then added to initiate the reaction. Absdata were collected as a function of time using a JASCO V-630 spectrophotometer.
(§2) After a lag phase, due to coupling, a straight line was fitted to the progress curve and the slope value was recorded asAbs340 per min. The amount of NADPH produced per minute was calculated using the 340 nm millimolar extinction coefficient of 6.22. At each inhibitor concentration, reactions were performed in duplicate. Inhibition curves were obtained for each compound by plotting the relative activity versus inhibitor concentration.

A further series deals with human liver FBPase (Homo sapiens (Human), UniProt P09467). Described as above. The series is classed as biochemical. Particulars: for inhibition of human liver FBPase relative to AMP: compared with AMP, the natural allosteric inhibitor; for IC50: human liver FBPase. How it is done: Compounds 3 and 4 (see Scheme 1) were synthesized and tested to determine if they could inhibit either pig kidney or human liver FBPase. The test were performed using an enzyme-coupled assay^17 with AMP as a control.
human liver FBPase, sequence (P09467 2-338): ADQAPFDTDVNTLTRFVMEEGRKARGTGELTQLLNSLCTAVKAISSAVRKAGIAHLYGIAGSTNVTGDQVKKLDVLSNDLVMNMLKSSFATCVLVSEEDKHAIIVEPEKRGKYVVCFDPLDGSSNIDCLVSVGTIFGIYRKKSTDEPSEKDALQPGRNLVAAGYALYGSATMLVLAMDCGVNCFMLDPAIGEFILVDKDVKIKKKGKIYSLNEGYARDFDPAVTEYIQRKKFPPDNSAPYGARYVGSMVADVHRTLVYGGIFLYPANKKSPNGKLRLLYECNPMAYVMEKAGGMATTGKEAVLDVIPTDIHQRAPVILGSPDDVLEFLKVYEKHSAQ
as §1, §2

The subject of series [1] is allosteric site of FBPase. Put plainly: TNP-AMP fluorescence competition experiment. The series is classed as binding. The following applies: TNP-AMP at 0.5 times its Kd. The procedure:
Fluorescence data were collected using a JASCO FP-6300 spectro-fluorometer. Excitation and emission wavelengths of 410 and 535 nm respectively were used for TNPAMP (Molecular Probes). 0.15 mg of the respective FBPases, 0.08 mM MgCl and 20M fructose 1, 6-2 bisphosphate in 50 mM Tris-acetate buffer, pH 7.5, was added to a 2 mL cuvette and stirred. 3.5 M of TNP-AMP was added to the cuvette and the emission data was obtained Microliter volumes of 3 were subsequently added to the cuvette and resultant emission data was obtained after each addition. The final concentration of 3 in the enzyme solution was 6M.

Series [2] can be described thus: Solubility (remark in competition experiment). The series is classed as physicochemical.
Another series has as its system plasma glucose levels. Particulars: compared with Metformin (250 mg/kg); cited from earlier work.
[3] abbreviates: read-out: FBPase, IC50 Human Liver.

pig kidney FBPase, sequence (P00636 2-338 limits assumed): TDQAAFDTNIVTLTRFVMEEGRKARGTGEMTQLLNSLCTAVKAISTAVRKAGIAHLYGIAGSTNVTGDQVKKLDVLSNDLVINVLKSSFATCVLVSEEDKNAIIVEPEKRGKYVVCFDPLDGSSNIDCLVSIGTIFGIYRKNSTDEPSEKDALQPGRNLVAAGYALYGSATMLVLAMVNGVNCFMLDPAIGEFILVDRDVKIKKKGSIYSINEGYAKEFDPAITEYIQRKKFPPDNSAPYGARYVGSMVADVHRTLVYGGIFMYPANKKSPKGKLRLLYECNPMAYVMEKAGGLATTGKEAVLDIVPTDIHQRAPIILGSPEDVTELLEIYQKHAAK

Turning to `CCC(C)C(=O)c1c(O)cc2oc3c(C(=O)C(C)CC)c(O)cc(O)c3c2c1O` (stereo not shown) [Compound 4, 1,1′-(1,3,7,9-tetrahydroxydibenzofuran-2,6-diyl)bis(2-methylbutan-1-one)], the “inhibition of pig kidney FBPase relative to AMP” value on pig kidney FBPase is “comparable to that of AMP”. Also, the figures for the concentration for half-maximal inhibition (IC50) against pig kidney FBPase and on human liver FBPase (setting [3]) were 5 µM and 6 µM, respectively. Moreover, the “inhibition of human liver FBPase relative to AMP” value at human liver FBPase is “comparable to that of AMP”. The “TNP-AMP fluorescence on addition of increasing concentrations of compound” value in series [1] is “substantial diminution of the TNP-AMP fluorescence”. In series [2], the solubility entry was “relatively low solubility”.
Consider `CC(C)CC(=O)c1c(O)cc2oc3c(C(=O)CC(C)C)c(O)cc(O)c3c2c1O` [Compound 3, 1,1′-(1,3,7,9-tetrahydroxydibenzofuran-2,6-diyl)bis(3-methylbutan-1-one)], for which, on pig kidney FBPase, the “inhibition of pig kidney FBPase relative to AMP” value was “comparable to that of AMP” and the IC50 worked out at 1.5 ± 0.1 µM. For the same molecule, the “inhibition of human liver FBPase relative to AMP” value against human liver FBPase is listed as “comparable to that of AMP”. The IC50 at human liver FBPase (setting [3]) was 8.1 µM. Besides, in series [1], the “TNP-AMP fluorescence on addition of increasing concentrations of compound” value is reported as “substantial diminution of the TNP-AMP fluorescence”. Further, in series [2], the solubility entry is on record as “relatively low solubility”.
As to `Nc1ncnc2c1ncn2[C@@H]1O[C@H](COP(=O)(O)O)[C@@H](O)[C@H]1O` [AMP, reference compound], the IC50 at pig kidney FBPase was 1.3 µM; at human liver FBPase (setting [3]), 9.7 µM and 9.8 µM.
Take `C=C(C)C(O)Cc1c(O)c(C(=O)C(C)CC)c(O)c2c1oc1c(C(=O)C(C)CC)c(O)c(CC=C(C)C)c(O)c12` (stereo not shown) [Compound 1, achyrofuran]: in the series on plasma glucose levels, the “lowering of plasma glucose levels” value is listed as “better than that of Metformin”.
As for `CC(=O)C1=C(O)C=C2Oc3c(C(C)=O)c(O)c(C)c(O)c3[C@@]2(C)C1=O` [Compound 2, (+)-usnic acid, reference compound], the IC50 on human liver FBPase (read-out: IC50 human liver FBPase) was found to be 370 µM.
